Reference: ChEMBL document CHEMBL3091316, “Antiangiogenic tocotrienol derivatives from Garcinia amplexicaulis” (J Nat Prod, 2013)
Activity calls are given as the source filed them. The rule behind the calls is not given here.

How the values were obtained:
HUVEC [1] = assay: Antiadhesive activity in HUVEC assessed as decrease in cell adhesion at 25 nM to 2.5 uM after 24 hrs by crystal violet staining technique; format: functional, cell-based; conditions: Homo sapiens
HUVEC [2] = assay: Cytotoxicity against HUVEC assessed as cell viability at 25 nM to 2.5 uM after 24 to 48 hrs by MTT assay; format: cell-based; conditions: human, 0.025 µM
HUVEC [3] = assay: Antimigratory activity in VEGF-induced HUVEC assessed as decrease in cell migration at 2.5 uM incubated for 30 mins prior to VEGF challenge measured after 24 hrs by Transwell assay; format: functional, cell-based; conditions: Homo sapiens
HUVEC [4] = assay: Antiangiogenic activity in HUVEC assessed as inhibition of VEGF-induced capillary network formation at 25 nM to 2.5 uM after 24 hrs by matrigel assay; format: functional, cell-based; conditions: Homo sapiens
HUVEC [5] = assay: Inhibition of VEGF-induced HUVEC proliferation at 25 nM to 2.5 uM incubated for 30 mins prior to VEGF challenge measured after 24 hrs by fluorescence assay; format: functional, cell-based; conditions: Homo sapiens
HUVEC [6] = assay: Antimigratory activity in VEGF-induced HUVEC assessed as decrease in cell migration at 25 nM to 2.5 uM incubated for 30 mins prior to VEGF challenge measured after 24 hrs by Transwell assay; format: functional, cell-based; conditions: Homo sapiens

C/C(=C\CC/C(C)=C/CC[C@]1(C)CCc2cc(O)cc(C)c2O1)CCC=C(CO)CO
Activity (HUVEC [1]): Active | Activity (HUVEC [2]): Non-toxic | Activity (HUVEC [3]): Active | Activity (HUVEC [4]): Active | inhibition (HUVEC [5]): Active

C/C(=C\CC/C(C)=C/CC[C@]1(C)CCc2cc(O)c(C)c(C)c2O1)CCC=C(CO)CO
Activity (HUVEC [1]): inactive | Activity (HUVEC [6]): inactive | Activity (HUVEC [2]): Non-toxic | Activity (HUVEC [4]): Active | inhibition (HUVEC [5]): Active
